From patent US7220775B2, “Compound useful for the treatment of neuropathic pain” (H. Lundbeck A/S, priority 2002, dated 2007)
pKi: −log10 of the molar value.

Key:
[1] = target: NE transporter (rNE Uptk) (Rattus norvegicus, UniProt Q9WTR4); test: Binding at native NE transporter; details: Table 7, native transporter
Procedure: (§1) The binding properties of the compounds of the present invention were evaluated at one or more cloned receptors or native, tissue-derived transporters, using protocols described below.
(§2) The methods to determine binding affinity at native transporters are described in the following publications: 5HT transporter and NE transporter (Owens et al., 1997), and DA transporter (Javitch et al, 1984).

[2] = test system: NE transporter (rNE Uptk); test: Binding at native NE transporter; set-up: species or system rat; details: Table 8
Procedure: as §1, §2

| Compound | pKi [1] | selectivity ratio rNE Uptk (Ki rNE Uptk / Ki hGAL3) [2] |
| --- | --- | --- |
| Cc1ccc(Nc2cc(N3CCCCC3)nc(N(C)CCc3c[nH]c4ccccc34)n2)cc1 [Example 11] | < 4.30 | >100 |
| CN(CCc1c[nH]c2ccccc12)c1nc(Nc2ccc(F)c(F)c2)cc(N2CCCCC2)n1 [Example 15] | < 4.30 | >100 |
| COc1cccc(Nc2cc(N3CCCCC3)nc(N(C)CCc3c[nH]c4ccccc34)n2)c1 [Example 17] | 4.74 | >100 |
| Cc1ccc(Nc2cc(N3CCCCC3)nc(N(C)CCc3ccccc3)n2)cc1 [Example 22] | 4.88 | >100 |
| Cc1ccc(Nc2cc(N3CCCCC3)nc(N3CCN(c4ncccc4C(F)(F)F)CC3)n2)cc1 [Example 34] | < 4.30 | >100 |
| CN(C)c1cc(Nc2ccc(Cl)c(Cl)c2)nc(Nc2ccccc2)n1 [Example 60] | 4.34 | – |
| Cc1ccc(Nc2cc(N(C)C)nc(N(C)CCc3c[nH]c4ccccc34)n2)cc1 [Example 77] | 4.55 | >100 |
| O=C1C(=Nc2cccc(Cl)c2)c2ccccc2N1c1ccccc1 [Example 94, 3-[(3-CHLOROPHENYL)IMINO]-1-PHENYL-1,3-DIHYDRO-2H-INDOL-2-ONE] | 5.31 | >30 |
| O=C1C(=Nc2ccc(C(F)(F)F)cc2)c2ccccc2N1c1ccccc1 [Example 95, 1-PHENYL-3-[[4-(TRIFLUOROMETHYL)PHENYL]IMINO]-1,3-DIHYDRO-2H-INDOL-2-ONE] | 5.21 | >100 |
| O=C1C(=Nc2ccc(Cl)cc2)c2ccccc2N1c1ccccc1 [Example 97, 3-[(4-CHLOROPHENYL)IMINO]-1-PHENYL-1,3-DIHYDRO-2H-INDOL-2-ONE] | 5.36 | >30 |
| O=C1C(=Nc2ccc(Br)cc2)c2ccccc2N1c1ccccc1 [Example 98, 3-[(4-BROMOPHENYL)IMINO]-1-PHENYL-1,3-DIHYDRO-2H-INDOL-2-ONE] | 5.26 | >100 |
